These results are taken from patent publication US9468662B2, “Use of the PAT nonapeptide in the treatment and prevention of neurodegenerative diseases” (ORPHIT, priority 2010, dated 2016).

No end group written: not given here.

Data set [1] relates to rat primary GABAergic medium spiny neurons. Nature of the data set: Cellular model of Huntington's disease, survival of rat primary GABAergic medium spiny neurons after glutamate injury. The data set is classed as cell-based. The source says: GABAergic medium spiny neurons (MSNs) in the striatum represent the mostly affected cell population in HD brain. Being the main neuronal cell type of the striatum (85% in humans), GABAergic MSNs play a central role in the clinical manifestation of HD. GABA is viewed as the neurotransmitter that inhibits spontaneous involuntary movements, therefore loss of GABAergic MSNs is responsible for chorea development and other involuntary movements. The exquisite vulnerability of MSNs of striatum to degeneration in HD is caused by glutamate excitotoxicity that leads to neuronal dysfunction and death. Excessive activation of NMDA glutamate receptors is observed in post-mortem HD brain tissue (Kumar P. et al. Pharmacol. Rep. 2010; 62: 1). […] After 24 h of intoxication, viable GABAergic neurons are visualized and quantified by staining with a monoclonal anti-Glutamic Acid Decarboxylase antibody (specific for isoform GAD67). […]
For each condition, 30 pictures per well were acquired (representing 80% of the total surface of the well) using ImageXpress (Molecular device) equipped with a LED at 20× magnification. […] The number of GAD67-positive neurons was automatically analyzed using MetaXpress software (Molecular device). […] All values were expressed as mean+/−SEM (s.e. mean) (n=6 wells per condition per culture).

The subject of data set [2] is rat primary dopaminergic neurons. Nature of the data set: Cellular model of Parkinson's disease, survival of rat primary dopaminergic neurons after 6-hydroxydopamine injury. The data set is classed as cell-based. The text has this: 6-hydroxydopamine (6-OHDA) is a selective catecholaminergic neurotoxin that is not only used as a pharmacological agent able to trigger PD-like stigmata (Sauer H. and Oertel W H Neuroscience 1994; 59: 401 and Cass W A et al. Brain Res. 2002; 938: 29) but also likely corresponds to a natural dopaminergic catabolite that accumulates in PD-affected brains and that appears to strongly contribute to this pathology (Jellinger K. et al. J. Neural. Transm. 1995; 46: 297). For this reason, 6-OHDA-induced dopaminergic neurotoxicity in mice is widely used as a model for PD research. Because 6-OHDA also induces neurodegeneration of dopaminergic neurons in vitro, it provides a useful model of PD. In this in vitro test mesencephalic dopaminergic neurons are exposed to 6-OHDA injury. […] After 24 h of intoxication, viable dopaminergic neurons are visualized and quantified by staining with a monoclonal Anti-Tyrosine Hydroxylase (TH) antibody. Tyrosine Hydroxylase is the first and rate-limiting enzyme involved in the biosynthesis of catecholamines like dopamine and norepinephrin from Tyrosine and has a key role in the physiology of adrenergic neurons. Tyrosine hydroxylase is commonly used as a marker for dopaminergic neurons, which is particularly relevant for research in Parkinson's disease.
Rat dopaminergic neurons were cultured as described by Schinelli et al. J. Neurochem. 1988; 50: 1900 and Visanji N P et al. FASEB J. 2008; 22: 2488. Briefly, the midbrains obtained from 15-day old rat embryos (Janvier, France) were dissected under a microscope. The embryonic midbrains were removed and placed in ice-cold medium of Leibovitz (L15) containing 2% of Penicillin-Streptomycin (PS) and 1% of bovine serum albumin (BSA). The ventral portion of the mesencephalic flexure, a region of the developing brain rich in dopaminergic neurons, was used for the cell preparations.
The midbrains were dissociated by trypsinisation for 20 min at 37° C. (Trypsin EDTA 1X). […] Viable cells were counted in a Neubauer cytometer using the trypan blue exclusion test. […]

Data set [3] is described as follows: Crossing of the blood-brain barrier, inferred from activity by intra-peritoneal route. The data set is classed as in vivo. The following applies: concluded from biological activity after intra-peritoneal administration. The source says:
To cross the BBB, persons skilled in the art know that the molecular and physicochemical properties of the molecule must fulfill the 5 criteria described by Lipinski et al. (1997). Adv Drug Del Rev 23: 3-25 (amongst them a low molecular weight, its hydrophobicity, its charge etc. . . . ).

Consider `N[C@@H](CCC(=O)O)C(=O)O` [glutamate, reference compound], for which the “reduction of survival of GAD67-positive MSN compared to control culture conditions” value in data set [1] (glutamate 10 μM, 20 min, read after 24 h, no protective pre-treatment) is reported as 38%. Regarding `NCCc1cc(O)c(O)cc1O` [6-OHDA, 6-hydroxydopamine, reference compound], the “reduction of survival of TH-positive dopaminergic neurons compared to control culture conditions” value in data set [2] (6-OHDA 20 μM, 24 h, no protective pre-treatment) came out at 31%.

“EAKSQGGSD [PAT peptide, Glu-Ala-Lys-Ser-Gln-Gly-Gly-Ser-Asp (EAKSQGGSD)]”: the “survival of TH-positive dopaminergic neurons (% of control condition)” value in data set [2] (PAT 10 nM, 1 h pre-incubation, then 6-OHDA 20 μM for 24 h) was 100%. Further, the “passage across the blood-brain barrier” value in data set [3] is reported as “crosses the BBB”.

B1: BNDF: survival promoting brain derived neurotrophic factor used as a positive control (protein, UniProt P23560 19-247, looked up)
Neurotrophic factor BDNF …: APMKEANIRGQGGLAYPGVRTHGTLESVNGPKAGSRGLTSLADTFEHVIEELLDEDQKVRPNEENNKDADLYTSRVMLSSQVPLEPPLLFLLEEYKNYLDAANMSMRVRRHSDPARRGELSVCDSISEWVTAADKKTAVDMSGGTVTVLEKVPVSKGQLKQYFYETKCNPMGYTKEGCRGIDKRHWNSQCRTTQSYVRALTMDSKKRIGWRFIRIDTSCVCTLTIKRGR
Consider B1, for which, in data set [1] (BDNF 50 ng/mL (2 nM), 1 h pre-incubation, glutamate 10 μM 20 min, then 24 h), the “survival of GAD67-positive neurons (cell survival, % of control)” value is recorded as 81%. The “protection of TH-positive neurons from 6-OHDA-induced cell death” value in data set [2] (BDNF 50 ng/mL (2 nM), 1 h pre-incubation, 6-OHDA 20 μM 24 h) is on record as “fully protected”.
